Experimental data taken from ChEMBL document CHEMBL2429789, “Discovery, Design, and Optimization of Isoxazole Azepine BET Inhibitors” (ACS Med Chem Lett, 2013).
Activity calls are given as the source filed them. No cut-off for these calls is given here.

Columns and labels:
[1] = target: T1, Bromodomain-containing protein 4 (Homo sapiens, UniProt O60885); test: Inhibition of BRD4 in human Raji cells assessed as reduction of MYC expression after 4 hrs; assay type: cell-based
[2] = target: T1, Bromodomain-containing protein 4; test: Inhibition of His-FLAG-tagged BRD4 binding domain1 (unknown origin) binding to H4-TetraAc-biotin peptide after 20 mins by AlphaLISA
[3] = tested on: Mus musculus; test: Inhibition in MYC expression in tumor of NOD/SCID Harlan mouse xenografted with human Raji cells at 100 mg/kg, po; assay type: functional, organism-based; set-up: dose 100 mg/kg
[4] = Half life in dog at 1 mg/kg, iv; assay type: ADME, organism-based, Canis lupus familiaris; set-up: dose 1 mg/kg, route intravenous; conditions: in vivo
[5] = Plasma protein binding in mouse; assay type: ADME, cell-free; conditions: read-out: PPB (converted)
[6] = tested on: Rattus norvegicus; test: […] clearance in rat at 1 mg/kg, iv; assay type: ADME, organism-based; set-up: dose 1 mg/kg, route intravenous; conditions: in vivo
[7] = Intrinsic clearance in mouse liver microsomes; assay type: ADME, Microsome; conditions: read-out: CLH
[8] = tested on: Mus musculus; test: Inhibition of MYC expression in tumor of NOD/SCID Harlan mouse xenografted with human Raji cells at 100 mg/kg, po up to 8 hrs; assay type: functional, organism-based; set-up: dose 100 mg/kg
[9] = tested on: Mus musculus; test: Inhibition in MYC expression in tumor of NOD/SCID Harlan mouse xenografted with human Raji cells at 100 mg/kg, po after 4 hrs; assay type: functional
[10] = Volume of distribution at steady state in rat at 1 mg/kg, iv; assay type: ADME, organism-based; set-up: dose 1 mg/kg, route intravenous; conditions: in vivo, read-out: Vdss
[11] = tested on: Canis familiaris; test: Intrinsic clearance in dog at 1 mg/kg, iv; assay type: ADME, organism-based, Canis lupus familiaris; set-up: dose 1 mg/kg, route intravenous; conditions: in vivo
[12] = Volume of distribution at steady state in dog at 1 mg/kg, iv; assay type: ADME, organism-based, Canis lupus familiaris; set-up: dose 1 mg/kg, route intravenous; conditions: in vivo, read-out: Vdss
[13] = Drug uptake in tumor of NOD/SCID Harlan mouse xenografted with human Raji cells at 100 mg/kg, po; assay type: ADME, organism-based, Neoplasm; set-up: dose 100 mg/kg, route oral; conditions: in vivo, read-out: Drug uptake
[14] = tested on: Mus musculus; test: Inhibition of MYC expression in tumor of NOD/SCID Harlan mouse xenografted with human Raji cells at 100 mg/kg, po after 8 hrs relative to control; assay type: functional, organism-based; set-up: dose 100 mg/kg
[15] = Intrinsic clearance in human liver microsomes; assay type: ADME, Microsome; conditions: read-out: CLH
[16] = Intrinsic clearance in dog liver microsomes; assay type: ADME, Canis lupus familiaris, Microsome; conditions: read-out: CLH
[17] = Oral bioavailability in rat at 5 mg/kg; assay type: ADME, organism-based; conditions: in vivo
[18] = tested on: Mus musculus; test: Inhibition in MYC expression in tumor of po dosed NOD/SCID Harlan mouse xenografted with human Raji cells; assay type: functional, organism-based
[19] = AUC in mouse at 5 mg/kg, po; assay type: ADME, organism-based; set-up: dose 5 mg/kg, route oral; conditions: plasma
[20] = target: CYP3A4 (Homo sapiens, UniProt P08684); test: Inhibition of CYP3A4 (unknown origin) at 10 uM; assay type: ADME
[21] = Plasma protein binding in human; assay type: ADME, cell-free; conditions: read-out: PPB (converted)
[22] = AUC in rat at 5 mg/kg, po; assay type: ADME, organism-based; set-up: dose 5 mg/kg, route oral; conditions: plasma
[23] = Plasma protein binding in rat; assay type: ADME, cell-free; conditions: read-out: PPB (converted)
[24] = Intrinsic clearance in rat liver microsomes; assay type: ADME, Microsome; conditions: read-out: CLH
[25] = Half life in rat at 1 mg/kg, iv; assay type: ADME, organism-based; set-up: dose 1 mg/kg, route intravenous; conditions: in vivo
[26] = tested on: Plasma; test: Stability of the compound in rat plasma; assay type: ADME, cell-free

Sequence of CYP3A4 (P08684 whole entry): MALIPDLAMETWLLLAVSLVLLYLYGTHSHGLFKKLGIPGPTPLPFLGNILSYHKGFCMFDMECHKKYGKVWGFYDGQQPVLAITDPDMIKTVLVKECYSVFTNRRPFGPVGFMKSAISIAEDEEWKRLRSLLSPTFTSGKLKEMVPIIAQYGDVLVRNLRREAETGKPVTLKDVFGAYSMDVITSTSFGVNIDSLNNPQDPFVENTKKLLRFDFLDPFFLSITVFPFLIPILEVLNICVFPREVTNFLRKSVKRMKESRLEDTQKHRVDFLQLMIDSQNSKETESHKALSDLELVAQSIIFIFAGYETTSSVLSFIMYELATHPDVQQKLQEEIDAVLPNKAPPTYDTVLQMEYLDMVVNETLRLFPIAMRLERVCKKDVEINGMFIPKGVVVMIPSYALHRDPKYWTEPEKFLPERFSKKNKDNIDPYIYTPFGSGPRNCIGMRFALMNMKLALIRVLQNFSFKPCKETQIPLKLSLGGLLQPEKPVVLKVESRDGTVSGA

Structure (SMILES): Cc1cc(Cl)ccc1C1=N[C@@H](CC(N)=O)c2onc(C)c2-c2sc(C)c(C)c21
- IC50 [1]: 160 nM
- IC50 [2]: 42 nM

Structure (SMILES): CC(=O)NC[C@@H]1N=C(c2ccc(Cl)cc2)c2c(sc(C)c2C)-c2c(C)noc21
- IC50 [1]: 2200 nM
- IC50 [2]: 190 nM

Structure (SMILES): CCCC1=N[C@@H](CC(N)=O)c2onc(C)c2-c2sc(C)c(C)c21
- IC50 [1]: 1500 nM
- IC50 [2]: 300 nM

Structure (SMILES): Cc1noc2c1-c1sc(C)c(C)c1C(c1ccc(Cl)cc1)=N[C@H]2CC(N)=O
- inhibition [3]: Active
- half-life [4]: 3 h
- fraction unbound [5]: 0.019
- CL [6]: 46.2 mL/min/kg
- microsomal CLint [7]: 140 µL/min/mg
- inhibition [8]: Active
- IC50 [1]: 140 nM
- inhibition in vivo at 100 mg/kg [9]: 75%
- Vd [10]: 2.45 L/kg
- CL [11]: 5.33 mL/min/kg
- Vd [12]: 1.27 L/kg
- concentration [13]: 5 µM
- inhibition [14]: inactive
- microsomal CLint [15]: 5.5 µL/min/mg
- microsomal CLint [16]: 11 µL/min/mg
- bioavailability [17]: 31%
- inhibition [18]: Dose-dependent effect
- AUC [19]: 723 ng·h/mL
- inhibition at 10 µM [20]: 20%
- fraction unbound [21]: 0.006
- AUC [22]: 605 ng·h/mL
- fraction unbound [23]: 0.008
- microsomal CLint [24]: 27 µL/min/mg
- IC50 [2]: 26 nM
- half-life [25]: 1.39 h

Structure (SMILES): Cc1noc2c1-c1sc(C)c(C)c1C(c1ccccc1Cl)=N[C@H]2CC(N)=O
- IC50 [1]: 1900 nM
- IC50 [2]: 250 nM

Structure (SMILES): Cc1noc2c1-c1sc(C)c(C)c1C(Cc1ccccc1)=N[C@H]2CC(N)=O
- IC50 [2]: 5700 nM

Structure (SMILES): Cc1noc2c1-c1sc(C)c(C)c1C(c1ccc(C#N)cc1)=N[C@H]2CC(N)=O
- CL [6]: 72.5 mL/min/kg
- IC50 [1]: 91 nM
- Vd [10]: 2.22 L/kg
- Stability [26]: Unstable
- microsomal CLint [15]: 4.6 µL/min/mg
- bioavailability [17]: 44%
- inhibition at 10 µM [20]: 0%
- fraction unbound [21]: 0.041
- AUC [22]: 504 ng·h/mL
- microsomal CLint [24]: 8.9 µL/min/mg
- IC50 [2]: 33 nM
- half-life [25]: 0.393 h

Structure (SMILES): Cc1noc2c1-c1sc(C)c(C)c1C(c1ccc(C#N)cc1)=N[C@H]2[C@@H](C)C(N)=O
- IC50 [1]: 710 nM
- IC50 [2]: 250 nM

Structure (SMILES): Cc1noc2c1-c1sc(C)c(C)c1C(c1ccc(N)nc1)=N[C@H]2CC(N)=O
- IC50 [1]: 380 nM
- Stability [26]: Unstable
- microsomal CLint [15]: 5.4 µL/min/mg
- inhibition at 10 µM [20]: 20%
- fraction unbound [21]: 0.006
- microsomal CLint [24]: 18 µL/min/mg
- IC50 [2]: 73 nM

Structure (SMILES): Cc1noc2c1-c1sc(C)c(C)c1C(c1cncnc1)=N[C@H]2CC(N)=O
- IC50 [2]: 2500 nM

Structure (SMILES): Cc1noc2c1-c1sc(C)c(C)c1C(c1ccc(Cl)cc1)=N[C@H]2Cc1nccs1
- IC50 [1]: 2100 nM
- IC50 [2]: 190 nM

Structure (SMILES): Cc1noc2c1-c1sc(C)c(C)c1C(c1ccc(Cl)cn1)=N[C@H]2CC(N)=O
- IC50 [1]: 240 nM
- IC50 [2]: 72 nM

Structure (SMILES): CCNC(=O)C[C@@H]1N=C(c2ccc(Cl)cc2)c2c(sc(C)c2C)-c2c(C)noc21
- IC50 [1]: 320 nM
- IC50 [2]: 36 nM

Structure (SMILES): CCNC(=O)C[C@H]1N=C(c2ccc(Cl)cc2)c2c(sc(C)c2C)-c2c(C)noc21
- IC50 [2]: 2100 nM

Structure (SMILES): Cc1noc2c1-c1sc(C)c(C)c1C(c1ccc(Cl)cc1)=N[C@H]2CC(=O)OC(C)(C)C
- IC50 [1]: 2100 nM
- IC50 [2]: 290 nM

Structure (SMILES): COC(=O)NC[C@@H]1N=C(c2ccc(Cl)cc2)c2c(sc(C)c2C)-c2c(C)noc21
- IC50 [1]: 1900 nM
- IC50 [2]: 86 nM

Structure (SMILES): Cc1noc2c1-c1sc(C)c(C)c1C(c1ccccc1)=N[C@H]2CC(N)=O
- IC50 [1]: 180 nM
- Stability [26]: Unstable
- microsomal CLint [15]: 2.4 µL/min/mg
- inhibition at 10 µM [20]: 1%
- fraction unbound [21]: 0.018
- microsomal CLint [24]: 160 µL/min/mg
- IC50 [2]: 29 nM

Structure (SMILES): Cc1noc2c1-c1sc(C)c(C)c1C(N1CCOCC1)=N[C@H]2CC(N)=O
- IC50 [2]: 1100 nM

Structure (SMILES): Cc1noc2c1-c1sc(C)c(C)c1C(c1cccc(Cl)c1)=N[C@H]2CC(N)=O
- IC50 [1]: 470 nM
- IC50 [2]: 74 nM

Structure (SMILES): Cc1noc2c1-c1sc(C)c(C)c1C(C1CCOCC1)=N[C@H]2CC(N)=O
- IC50 [2]: 6200 nM

Structure (SMILES): Cc1noc(N)c1-c1ccccc1
- IC50 [2]: 33000 nM

Structure (SMILES): Cc1noc2c1-c1sc(C)c(C)c1C(c1ccc(Cl)cc1)=N[C@H]2Cc1ncc[nH]1
- IC50 [1]: 3600 nM
- IC50 [2]: 200 nM
